US12084485B2 (Intarcia Therapeutics, Inc., priority 2020, dated 2024)
Where two headings read alike, the source gives them in different places. Values belong to the compound of their own block, whether it stands above or below them.

How the values were obtained:
[1] = Stability in DMSO or DI water at 37° C. (purity by LC/MS and HPLC); format: physicochemical
[2] = Solubility in saline or DI water at room temperature (visual inspection); format: physicochemical
[3] = cited from earlier work
[4] = Acute food intake inhibition in Long Evans rats after bolus SC dosing (BioDAQ); format: in vivo, rat; conditions: 30 mcg SC bolus
[5] = Body weight changes in LE rats after bolus SC dosing; format: in vivo, rat; conditions: 30 mcg/kg SC bolus
[6] = Weight-loss efficacy in LE DIO rats after bolus SC dosing; format: in vivo, rat; conditions: male LE DIO rats, from baseline and vehicle control (ΔΔ %)
[7] = Comparative in vivo weight loss potency, A120 vs semaglutide, DIO rats (28 days); parameters: species or system rat
HbA1c = assay: Comparative in vivo HbA1c lowering potency, A120 vs semaglutide (28 days); parameters: species or system rat
[8] = Body composition (quantitative magnetic resonance) in male LE DIO rats; format: in vivo, rat; conditions: day 26
[9] = Body composition in male ZDF rats; format: in vivo, rat; conditions: day 25
[10] = solute Saline, TFA salt unless indicated otherwise
[11] = ΔΔ % weight decrease in DIO rat at day 27
[12] = ΔΔ % change in HbA1c in ZDF rat at day 27

Stability @ 37° C. (% purity) Day 14 ([1]; solute DI H2O, 37° C., TFA salt unless indicated otherwise): 96.6% | Stability @ RT (% purity) Day 0 ([1]; solute DI H2O, TFA salt unless indicated otherwise, 1 mg/ml): 95.8% | Stability @ RT (% purity) Day 14 ([1]; solute DI H2O, TFA salt unless indicated otherwise): 94.7% | Stability @ RT (% purity) Day 28 ([1]; solute DI H2O, Day 28, TFA salt unless indicated otherwise): 94.5% | Stability @ 37° C. (% purity) Day 14 ([1]; solute Saline, 37° C., TFA salt unless indicated otherwise): 96.7% | Appearance of stability sample (cloudy / particulates) ([1]; solute Saline, 37° C., Day 28): (c) | Stability @ 37° C. (% purity) Day 28 ([1]; solute Saline, 37° C., Day 28, TFA salt unless indicated otherwise): 85.5% | Stability @ RT (% purity) Day 0 [1, 10]: 97.9% | Stability @ RT (% purity) Day 14 [1, 10]: 93.7% | Stability @ RT (% purity) Day 28 ([1]; solute Saline, Day 28, TFA salt unless indicated otherwise): 94.9% | solubility ([2]; DI water, room temperature, as TFA salt unless indicated otherwise, read-out: Solubility (mg/mL) in DI water): > 101 mg/mL | solubility ([2]; saline, room temperature, as TFA salt unless indicated otherwise, read-out: Solubility (mg/mL) in saline): > 101 mg/mL
Compound: CC[C@H](C)[C@H](NC(=O)[C@H](Cc1ccccc1)NC(=O)[C@H](CC(C)C)NC(=O)[C@H](CCCNC(=N)N)NC(=O)[C@@H](NC(=O)[C@H](C)NC(=O)[C@H](CCC(=O)O)NC(=O)[C@H](CCCCNC(=O)CC[C@H](NC(=O)COCCOCCNC(=O)CCCCCCCCCCCCCCCCCCC(=O)O)C(=O)O)NC(=O)[C@H](CCC(=O)O)NC(=O)[C@H](Cc1ccc(O)cc1)NC(=O)[C@H](CCC(N)=O)NC(=O)[C@H](CCCCN)NC(=O)[C@H](CO)NC(=O)[C@H](CC(C)C)NC(=O)[C@H](CC(=O)O)NC(=O)[C@H](CCC(=O)O)NC(=O)[C@@H](NC(=O)[C@H](Cc1ccccc1)NC(=O)[C@@H](NC(=O)CNC(=O)[C@H](CCC(=O)O)NC(=O)C(C)(C)NC(=O)[C@@H](N)Cc1c[nH]cn1)[C@@H](C)O)[C@@H](C)O)C(C)C)C(=O)N[C@@H](CO)C(=O)N[C@@H](Cc1c[nH]c2ccccc12)C(=O)N[C@@H](CC(C)C)C(=O)N[C@@H](CCCCN)C(=O)N[C@@H](CC(N)=O)C(=O)NCC(=O)NCC(=O)N1CCC[C@H]1C(=O)N[C@@H](CO)C(=O)N[C@@H](CO)C(=O)NCC(=O)N[C@@H](C)C(=O)N1CCC[C@H]1C(=O)N1CCC[C@H]1C(=O)N1CCC[C@H]1C(=O)N[C@@H](CO)C(N)=O [Compound A162]

Compound: human amylin: 37-residue polypeptide hormone co-secreted with insulin from pancreatic β-cells
half-life in serum [3]: about 13 minutes

Compound: CC[C@H](C)[C@@H]1NC(=O)[C@H](Cc2ccccc2)NC(=O)[C@H](CCCCN)NC(=O)[C@@H](NC(=O)[C@H](C)NC(=O)[C@H](C)NC(=O)[C@H](CCC(=O)O)NC(=O)[C@H](CCCCNC(=O)CC[C@H](NC(=O)CC[C@H](NC(=O)COCCOCCNC(=O)CCCCCCCCCCCCCCCCCCC(=O)O)C(=O)O)C(=O)O)NC(=O)[C@H](CCC(=O)O)NC(=O)[C@H](Cc2ccc(O)cc2)NC(=O)[C@H](CCC(N)=O)NC(=O)[C@H](CCCCN)NC(=O)[C@H](CO)NC(=O)[C@@H](NC(=O)[C@H](CC(=O)O)NC(=O)[C@H](CO)NC(=O)[C@@H](NC(=O)[C@H](Cc2ccccc2)NC(=O)[C@@H](NC(=O)CNC(=O)[C@H](CCC(=O)O)NC(=O)C(C)(C)NC(=O)[C@@H](N)Cc2c[nH]cn2)[C@@H](C)O)[C@@H](C)O)C(C)C)CCCCNC(=O)CC[C@@H](C(=O)N[C@@H](Cc2c[nH]c3ccccc23)C(=O)N[C@@H](CC(C)C)C(=O)N[C@@H](CCCCN)C(=O)N[C@@H](CC(N)=O)C(=O)NCC(=O)NCC(=O)N2CCC[C@H]2C(=O)N[C@@H](CO)C(=O)N[C@@H](CO)C(=O)NCC(=O)N[C@@H](C)C(=O)N2CCC[C@H]2C(=O)N2CCC[C@H]2C(=O)N2CCC[C@H]2C(=O)N[C@@H](CO)C(N)=O)NC1=O [Compound A137]
% Food Intake Inhibition from Vehicle, 0-24 hr [4]: −67.0% | % Food Intake Inhibition from Vehicle, 25-48 hr [4]: −69.0% | % Food Intake Inhibition from Vehicle, 49-72 hr [4]: −25.7% | % Food Intake Inhibition from Vehicle, 73-96 hr [4]: −14.7% | % Weight change from Vehicle, 1 d [5]: −4.7% | % Weight change from Vehicle, 2 d [5]: −6.6% | % Weight change from Vehicle, 3 d [5]: −6.0% | % Weight change from Vehicle, 4 d [5]: −4.8% | DIO Weight Loss (30 mcg/kg SC bolus) % Weight change from Vehicle 2 d [6]: −3.0% | DIO Weight Loss (30 mcg/kg SC bolus) % Weight change from Vehicle 3 d [6]: −2.9% | DIO Weight Loss (30 mcg/kg SC bolus) % Weight change from Vehicle 4 d [6]: −2.7%

Compound: semaglutide
% Weight loss EC50 [7, 11]: 3.9 ng/mL | % Weight loss ED50 [7, 11]: 23 µg/kg/day | % Weight loss at 300 mcg/kg/day dose ([7]; ΔΔ % weight decrease in DIO rat at day 27, 300 mcg/kg/day): 24% | % Change HbA1c EC50 (HbA1c; [12]): 6 ng/mL | % Change HbA1c ED50 (HbA1c; [12]): 36 µg/kg/day | % Change HbA1c at 300 mcg/kg/day dose (HbA1c; ΔΔ % change in HbA1c in ZDF rat at day 27, 300 mcg/kg/day): 4.8% | changes in body composition [8]: primarily due to fat mass loss | changes in body composition [9]: primarily due to fat mass loss

Compound: CC[C@H](C)[C@@H]1NC(=O)[C@H](Cc2ccccc2)NC(=O)[C@H](CCCCN)NC(=O)[C@@H](NC(=O)[C@@H](NC(=O)[C@H](C)NC(=O)[C@H](CCC(=O)O)NC(=O)[C@H](CCCCNC(=O)CC[C@H](NC(=O)CC[C@H](NC(=O)COCCOCCNC(=O)CCCCCCCCCCCCCCCCCCC(=O)O)C(=O)O)C(=O)O)NC(=O)[C@H](CCC(=O)O)NC(=O)[C@H](Cc2ccc(O)cc2)NC(=O)[C@H](CCC(N)=O)NC(=O)[C@H](CCCCN)NC(=O)[C@H](CO)NC(=O)[C@@H](NC(=O)[C@H](CC(=O)O)NC(=O)[C@H](CO)NC(=O)[C@@H](NC(=O)[C@H](Cc2ccccc2)NC(=O)[C@@H](NC(=O)CNC(=O)[C@H](CCC(=O)O)NC(=O)C(C)(C)NC(=O)[C@@H](N)Cc2c[nH]cn2)[C@@H](C)O)[C@@H](C)O)C(C)C)C(C)C)CCCCNC(=O)CC[C@@H](C(=O)N[C@@H](Cc2c[nH]c3ccccc23)C(=O)N[C@@H](CC(C)C)C(=O)N[C@@H](CCCCN)C(=O)N[C@@H](CC(N)=O)C(=O)NCC(=O)NCC(=O)N2CCC[C@H]2C(=O)N[C@@H](CO)C(=O)N[C@@H](CO)C(=O)NCC(=O)N[C@@H](C)C(=O)N2CCC[C@H]2C(=O)N2CCC[C@H]2C(=O)N2CCC[C@H]2C(=O)N[C@@H](CO)C(N)=O)NC1=O [Compound A135]
% Food Intake Inhibition from Vehicle, 0-24 hr [4]: −52.6% | % Food Intake Inhibition from Vehicle, 25-48 hr [4]: −62.2% | % Food Intake Inhibition from Vehicle, 49-72 hr [4]: −29.4% | % Food Intake Inhibition from Vehicle, 73-96 hr [4]: −8.0% | % Weight change from Vehicle, 1 d [5]: −4.3% | % Weight change from Vehicle, 2 d [5]: −7.4% | % Weight change from Vehicle, 3 d [5]: −6.4% | % Weight change from Vehicle, 4 d [5]: −4.2% | DIO Weight Loss (30 mcg/kg SC bolus) % Weight change from Vehicle 2 d [6]: −3.7% | DIO Weight Loss (30 mcg/kg SC bolus) % Weight change from Vehicle 3 d [6]: −4.8% | DIO Weight Loss (30 mcg/kg SC bolus) % Weight change from Vehicle 4 d [6]: −4.3%

solubility ([2]; Solubility (mg/mL) in DI water): > 70 mg/mL | solubility ([2]; Solubility (mg/mL) in saline): > 106 mg/mL
Compound: CC[C@H](C)[C@H](NC(=O)[C@H](Cc1ccccc1)NC(=O)[C@H](CCC(=O)O)NC(=O)[C@H](CCCNC(=N)N)NC(=O)[C@H](C)NC(=O)[C@H](C)NC(=O)[C@H](CCC(=O)O)NC(=O)[C@H](CCCCNC(=O)CC[C@H](NC(=O)CC[C@H](NC(=O)COCCOCCNC(=O)CC[C@H](NC(=O)CC[C@H](NC(=O)CCCCCCCCCCCCCCCCCCC(=O)O)C(=O)O)C(=O)O)C(=O)O)C(=O)O)NC(=O)[C@H](CCC(=O)O)NC(=O)[C@H](Cc1ccc(O)cc1)NC(=O)[C@H](CCC(N)=O)NC(=O)[C@H](CCCCN)NC(=O)[C@H](CO)NC(=O)[C@H](CC(C)C)NC(=O)[C@H](CC(=O)O)NC(=O)[C@H](CO)NC(=O)[C@@H](NC(=O)[C@H](Cc1ccccc1)NC(=O)[C@@H](NC(=O)CNC(=O)[C@H](CCC(=O)O)NC(=O)C(C)(C)NC(=O)[C@@H](N)Cc1c[nH]cn1)[C@@H](C)O)[C@@H](C)O)C(=O)N[C@@H](CCC(=O)O)C(=O)N[C@@H](Cc1c[nH]c2ccccc12)C(=O)N[C@@H](CC(C)C)C(=O)N[C@@H](CCCCN)C(=O)N[C@@H](CC(N)=O)C(=O)NCC(=O)NCC(=O)N1CCC[C@H]1C(=O)N[C@@H](Cc1c[nH]cn1)C(=O)N[C@@H](CO)C(=O)NCC(=O)N[C@@H](C)C(=O)N1CCC[C@H]1C(=O)N1CCC[C@H]1C(=O)N1CCC[C@H]1C(=O)N[C@@H](CO)C(N)=O [Compound A154]
